Columns and labels:
[1] = tested on: Bscl2-GFP and Srxn1-GFP mES reporter cells
[2] = tested on: Bscl2-GFP mES reporter cells
[3] = tested on: Srxn1-GFP mES reporter cells
[4] = tested on: ATM and ATR signaling pathways (phospho-Kap1, phospho-Chk1, phospho-p53); format: cell-based, mouse; conditions: Western blot, 24 h
Method: Mouse ES cells were propagated on irradiated primary mouse embryonic fibroblasts as feeders according to established protocols. […] For analysis of compounds that require metabolic activation, cells were exposed for 3 h in the presence of 1% S9 rat liver extract in 3.2 mM KCl, 0.8 mM MgCl2, 0.5 mM glucose-6-phosphate and 0.4 mM NADP.
Activation of the ATM and ATR signaling pathways in response to CisPt and Aph was determined by Western blot analysis. […] Proteins were transferred to PVDF membrane (Millipore) and detected using antibodies against phospho-Kap1 (Bethyl laboratories), phospho-Chk1 (Bethyl laboratories), phospho-p53 (Cell signaling) or Hprt (Santa Cruz) as protein loading control. Proteins were visualized using enhanced chemoluminescence (ECL).

[5] = tested on: Bscl2-GFP mES reporter cells; assay: Bscl2-GFP genotoxicity reporter; conditions: 10 uM CisPt or 1.5 uM Aph, 24 h, flow cytometry

SMILES | Bscl2-GFP reporter induction [2] | Srxn1-GFP reporter induction [3] | effect on phosphorylation of Kap1, Chk1 and p53 in response to CisPt and Aph [4] | effect on Bscl2-GFP reporter activation by CisPt or Aph [5] | other results
O=S(=O)([O-])[O-].[Cu+2] [Copper sulfate] | not induced | strong, concentration-dependent increase in expression of the GFP reporter | – | – | Bscl2-GFP/Srxn1-GFP GFP Induction [1]: Pos. (key: Pos.: considered positive when exposure to at least two different concentrations of a compound resulted in >1.5 fold induction of GFP expression); Bscl2-GFP/Srxn1-GFP Prim. toxic properties [1]: Pro-oxidant; GFP expression in Srxn1, Bscl2 and Btg2 GFP reporter cell lines [1]: increased
NC(=O)NO [HU, Hydroxyurea] | significant induction of GFP expression | slight reporter activation | – | – | –
O=P1(N(CCCl)CCCl)NCCCO1 (stereo not shown) [cyclophosphamide] | – | – | – | – | survival of Bscl2-GFP reporter cells after S9-dependent activation [2]: reduced survival; Bscl2-GFP reporter induction with metabolic activation ([2]; mouse): induced expression of the Bscl2-GFP reporter only when incubated in the presence of rat S9 mix
O=c1cc(-c2cccc3c2Sc2ccccc2S3)oc(N2CCOCC2)c1 [ku55933] | – | – | prevented phosphorylation of Kap1 and p53 | unaffected | –
COc1cc2c(c(OC)c1OC)-c1c(cc3c(c1OC)OCO3)CC(C)C(C)C2 (stereo not shown) [schisandrin B] | – | – | diminished Chk1 and p53 phosphorylation | almost completely be repressed | –
